Source: the RepoRT retention time repository (doi:10.1016/j.chroma.2014.05.003)

Test: RP, Agilent ZORBAX Eclipse Plus C18, 50 × 4.6 mm, 1.8 µm, 0.5 mL/min, estimated dead time 1.1 min; A: water + 0.1% formic acid; B: acetonitrile + 0.1% formic acid; gradient (min/%B) 0/10 3/10 25/100 28/100
Conditions: stereoisomer not certain

SMILES	LC retention time
CCOP(=S)(OCC)SCn1nnc2ccccc2c1=O	17.4 min
Cc1ncc([N+](=O)[O-])n1CCO	2.77 min
CCC(C)(CC)c1cc(NC(=O)c2c(OC)cccc2OC)on1	16.5 min
CC(C)N1C(=O)c2ccccc2NS1(=O)=O	12.7 min
NC(=O)N1c2ccccc2C=Cc2ccccc21	11.2 min
CCNC(C)Cc1ccccc1 (configuration not stated)	5.85 min
CNC(=O)N(C)c1nnc(C(C)(C)C)s1	9.87 min
CCNc1nc(NC(C)(C)C)nc(SC)n1	18.3 min
Cc1onc(-c2ccccc2)c1C(=O)NC1C(=O)N2C1SC(C)(C)C2C(=O)O (configuration not stated)	12.8 min
CCOP(=O)(NC(C)C)Oc1ccc(SC)c(C)c1 (configuration not stated)	15.4 min
CCCCN(CC)C(=O)SCCC	19.6 min
CN(C)C1C(=O)C(C(N)=O)=C(O)C2(O)C(=O)C3=C(O)c4c(O)cccc4C(C)(O)C3C(O)C12 (configuration not stated)	6.11 min
CCCCC1C(=O)N(c2ccccc2)N(c2ccccc2)C1=O	17.2 min
CC(COc1ccc(Oc2ccccc2)cc1)Oc1ccccn1 (configuration not stated)	21.2 min
CN1C2CCC1C(C(=O)O)C(OC(=O)c1ccccc1)C2 (configuration not stated)	6.61 min
CCOC(=O)C(CCc1ccccc1)NC(C)C(=O)N1CCCC1C(=O)O (configuration not stated)	9.21 min
CC12CCC3c4ccc(O)cc4CCC3C1CCC2=O (configuration not stated)	14.6 min
Cc1c(N)c(=O)n(-c2ccccc2)n1C	2.39 min
CC(C)N1C(=O)N(c2ccccc2)CSC1=NC(C)(C)C	18.3 min
COc1ccc(-c2ccccc2)cc1NNC(=O)OC(C)C	16.6 min
COc1ccc2cc(C(C)C(=O)O)ccc2c1 (configuration not stated)	13.8 min
CCC1OC(=O)C(C)C(OC2CC(C)(OC)C(O)C(C)O2)C(C)C(OC2OC(C)CC(N(C)C)C2O)C(C)(O)CC(C)C(=O)C(C)C(O)C1(C)O (configuration not stated)	9.73 min
C=C(C)C1Cc2c(ccc3c2OC2COc4cc(OC)c(OC)cc4C2C3=O)O1 (configuration not stated)	17.2 min
CCCCC(CC)COC(=O)c1ccccc1C(=O)OCC(CC)CCCC (configuration not stated)	27.5 min

SMILES	LC retention time
CNC(=O)Oc1ccc(N(C)C)c(C)c1	1.85 min
Cc1ccc(C)c(OCCCC(C)(C)C(=O)O)c1	18.1 min
Oc1ccccc1-c1ccccc1	16.3 min
CCOC(=O)N(C)C(=O)CSP(=S)(OCC)OCC	17.8 min
CC12CCC3C(=CCc4cc(O)ccc43)C1CCC2=O (configuration not stated)	14.4 min
CC1(C)SC2C(NC(=O)Cc3ccccc3)C(=O)N2C1C(=O)O (configuration not stated)	10.8 min
CNC(=O)ON=C(C)C(C)S(C)(=O)=O (configuration not stated)	4.36 min
CN1CCCC1c1cccnc1 (configuration not stated)	1.36 min
COP(=O)(NC(C)=O)SC (configuration not stated)	1.86 min
COc1cc(C2c3cc4c(cc3C(OC3OC5COC(C)OC5C(O)C3O)C3COC(=O)C23)OCO4)cc(OC)c1OP(=O)(O)O (configuration not stated)	16.1 min
CNC(C)Cc1ccccc1 (configuration not stated)	4.88 min
COc1ccc(Oc2ccc(NC(=O)N(C)C)cc2)cc1	13.3 min
COCCOc1ccccc1S(=O)(=O)NC(=O)Nc1nc(OC)nc(OC)n1	11.9 min
O=NN1CCCCC1	6.57 min
CSc1nnc(C(C)(C)C)c(=O)n1N	11.5 min
COP(=S)(OC)Oc1ccc(SC)c(C)c1	18.5 min
CN(C)C1CSSSC1	2.02 min
CCOP(=O)(OCC)OCC	9.03 min
CC12CCC3C(CCC4=CC(=O)CCC43C)C1CCC2=O (configuration not stated)	14.8 min
Cc1ccc(C(C)(C)C)c(O)c1C(=O)O	14.2 min
CCCN(CCC)c1c([N+](=O)[O-])cc(S(N)(=O)=O)cc1[N+](=O)[O-]	17 min
CCNC(C)Cc1ccc2c(c1)OCO2 (configuration not stated)	6.16 min
CN1CCC23c4c5ccc(O)c4OC2C(O)C=CC3C1C5 (configuration not stated)	1.47 min
